Tests used:
[1] = test system: LAMPU (Lamium purpureum, purple deadnettle); test: Post-emergence foliar-applied weed control in cereal crops, greenhouse (Example III); type: in vivo, Lamium purpureum (L.)
Description: (§1) Seeds of the desired test plant species were planted in Sun Gro MetroMix® 306 planting mixture, which typically has a pH of 6.0 to 6.8 and an organic matter content of about 30 percent, in plastic pots with a surface area of 103.2 square centimeters (cm^2). When required to ensure good germination and healthy plants, a fungicide treatment and/or other chemical or physical treatment was applied. The plants were grown for 7-36 days in a greenhouse with an approximate 14 hour photoperiod which was maintained at about 18° C. during the day and 17° C. during the night. Nutrients and water were added on a regular basis and supplemental lighting was provided with overhead metal halide 1000-Watt lamps as necessary. The plants were employed for testing when they reached the second or third true leaf stage.
(§2) Treatments consisted of the benzyl ester of 4-amino-3-chloro-5-fluoro-6-(4-chloro-2-fluoro-3-methoxy-phenyl)pyridine-2-carboxylic acid (Compound A), formulated as an SC (suspension concentrate), and a second cereal herbicide alone and in combination.
(§3) Measured aliquot of benzyl ester of 4-amino-3-chloro-5-fluoro-6-(4-chloro-2-fluoro-3-methoxy-phenyl)pyridine-2-carboxylic acid (Compound A) was placed in 25 milliliter (mL) glass vials and diluted in a volume of 1.25% (v/v) Agri-dex crop oil concentrated to obtain stock solutions. Compound requirements are based upon a 12 mL application volume at a rate of 187 liters per hectare (L/ha). Spray solutions of the second cereal herbicide and experimental compound mixtures were prepared by adding the stock solutions to the appropriate amount of dilution solution to form 12 mL spray solution with active ingredients in two- and three-way combinations. Formulated compounds were applied to the plant material with an overhead Mandel track sprayer equipped with an 8002E nozzle calibrated to deliver 187 L/ha over an application area of 0.503 square meters (m^2) at a spray height of 18 inches (46 cm) above average plant canopy. Control plants were sprayed in the same manner with the solvent blank.
(§4) The treated plants and control plants were placed in a greenhouse as described above and watered by sub-irrigation to prevent wash-off of the test compounds. After 20-22 days, the condition of the test plants as compared with that of the control plants was determined visually and scored on a scale of 0 to 100 percent where 0 corresponds to no injury and 100 corresponds to complete kill.
(§5) Colby's equation was used to determine the herbicidal effects expected from the mixtures (Colby, S. R. 1967. Calculation of the synergistic and antagonistic response of herbicide combinations. Weeds 15:20-22.).
(§6) The following equation was used to calculate the expected activity of mixtures containing two active ingredients, A and B: Expected=A+B−(A×B/100)

[2] = test system: GALAP (Galium aparine, cleavers); test: as above; type: in vivo, Galium aparine (L.); conditions: Table 51, after 20-22 days, 8.75 gai/ha alone
Description: as §1, with “The plants were employed for testing when they reached the second or third true leaf stage.” left out
Measured aliquot of benzyl ester of 4-amino-3-chloro-5-fluoro-6-(4-chloro-2-fluoro-3-methoxy-phenyl)pyridine-2-carboxylic acid (Compound A) was placed in 25 milliliter (mL) glass vials and diluted in a volume of 1.25% (v/v) Agri-dex crop oil concentrated to obtain stock solutions. […]
as §4, with “kill. […]” for “kill.”

[3] = test system: MATCH (Chamomilla chamomilla, scented mayweed); test: as above; type: in vivo, Chamomilla chamomilla (L.) Rydb.
Description: as §1, §2, §3, §4, §5, §6

[4] = test system: VIOTR (Viola tricolor, wild pansy); test: as above; type: in vivo, Viola tricolor (L.); conditions: 8.75 gai/ha alone
Description: as §1, §2, §3, §4, §5, §6

[5] = test system: ECHCG (Echinochloa crus-galli, barnyardgrass); test: In-water applied weed control, transplanted paddy rice, greenhouse (Example II); type: in vivo, Echinochloa crus-galli (L.) Beauv.
Description: Weed seeds or nutlets of the desired test plant species were planted in puddled soil (mud) prepared by mixing a shredded, non-sterilized mineral soil (50.5 percent silt, 25.5 percent clay, and 24 percent sand, with a pH of about 7.6 and an organic matter content of about 2.9 percent) and water at a 1:1 volumetric ratio. The prepared mud was dispensed in 365 mL aliquots into 16-ounce (oz.) non-perforated plastic pots with a surface area of 86.59 square centimeters (cm^2) leaving a headspace of 3 centimeters (cm) in each pot. Rice seeds were planted in Sun Gro MetroMix® 306 planting mixture, which typically has a pH of 6.0 to 6.8 and an organic matter content of about 30 percent, in plastic plug trays. Seedlings at the second or third leaf stage of growth were transplanted into 860 mL of mud contained in 32-oz. non-perforated plastic pots with a surface area of 86.59 cm^2 4 days prior to herbicide application. The paddy was created by filling the headspace of the pots with 2.5 to 3 cm of water. When required to ensure good germination and healthy plants, a fungicide treatment and/or other chemical or physical treatment was applied. The plants were grown for 4-22 days in a greenhouse with an approximate 14 h photoperiod which was maintained at about 29′C during the day and 26° C. during the night. Nutrients were added as Osmocote® (19:6:12, N:P:K+minor nutrients) at 2 g per 16-oz. pot and 4 g per 32-oz. pot. Water was added on a regular basis to maintain the paddy flood, and supplemental lighting was provided with overhead metal halide 1000-Watt lamps as necessary. The plants were employed for testing when they reached the first through fourth true leaf stage.
Treatments consisted of the acid or esters of 4-amino-3-chloro-5-fluoro-6-(4-chloro-2-fluoro-3-methoxy-phenyl)pyridine-2-carboxylic acid (compound A) each formulated as an SC and various herbicidal components alone and in combination. Forms of compound A were applied on an acid equivalent basis.
Other herbicidal components were applied on an active ingredient basis and included acetolactate synthase (ALS)-inhibiting herbicides (sulfonylurea chemical class), azimsulfuron formulated as Gulliver®, bensulfuron-methyl formulated as Londax® 60DF, cyclosulfamuron (technical grade materail), ethoxysulfuron formulated as Sunrice® 15 WDG, flucetosulfuron formulated as Sukedachi® 1KG G, imazosulfuron formulated as Brazzos®, metsulfuron-methyl formulated as Lorate®, nicosulfuron formulated as Accent®, orthosulfamuron formulated as Strada® WG, propyrisulfuron formulated as Zeta One®, and rimsulfuron formulated as Matrix® WG.
Treatment requirements for each compound or herbicidal component were calculated based upon the rates being tested, the concentration of active ingredient or acid equivalent in the formulation, an application volume of 2 mL per component per pot, and an application area of 86.59 cm^2 per pot.
For formulated compounds, a measured amount was placed in an individual 100 or 200 mL glass vial and was dissolved in a volume of 1.25% (v/v) Agri-Dex® crop oil concentrate to obtain application solutions.
For technical grade compounds, a weighed amount was placed in an individual 100 to 200 mL glass vial and was dissolved in a volume of acetone to obtain concentrated stock solutions. […]

[6] = Table 57, after 20-22 days, 8.75 gai/ha Compound A Benzyl Ester alone

Structure (SMILES)	Weed Control LAMPU Obs ([1]; Table 51, after 20-22 days, 8.75 gai/ha alone)	Weed Control LAMPU Obs [1, 6]	Weed Control GALAP Obs [2]	Weed Control MATCH Obs ([3]; Table 54, after 20-22 days, 8.75 gai/ha alone)	Weed Control MATCH Obs ([3]; Table 55, after 20-22 days, 8.75 gai/ha alone)	Weed Control MATCH Obs ([3]; Table 56, after 20-22 days, 8.75 gai/ha alone)	Weed Control MATCH Obs [3, 6]	Weed Control MATCH Obs ([3]; Table 59 (cereal), after 20-22 days, 8.75 gai/ha alone)	Weed Control VIOTR Obs ([4]; Table 52, after 20-22 days)	Weed Control VIOTR Obs ([4]; Table 54, after 20-22 days)	Visual Weed Control (%) - 20 DAA ECHCG Obs ([5]; Table 50, 4.38 gae/ha alone)	Visual Weed Control (%) - 20 DAA ECHCG Obs ([5]; Table 50, 8.75 gae/ha alone)	Visual Weed Control (%) - 20 DAA ECHCG Obs ([5]; Table 50, 17.5 gae/ha alone)	Weed Control MATCH Obs ([3]; Table 56, after 20-22 days, 1.1 gai/ha alone)
COc1c(Cl)ccc(-c2nc(C(=O)OCc3ccccc3)c(Cl)c(N)c2F)c1F [Compound A Benzyl Ester]	83%	83%	70%	20%	20%	20%	20%	20%	50%	50%	15%	20%	40%	–
COC(=O)c1ccccc1S(=O)(=O)NC(=O)Nc1nc(C)nc(OC)n1 [Metsulfuron-methyl, methyl 2-[[[[(4-methoxy-6-methyl-1,3,5-triazin-2-yl)amino]carbonyl]amino]sulfonyl]benzoate, reference compound]	–	–	–	–	–	–	–	–	–	–	–	–	–	89%
